# Results from patent EP0392976A1, “Monoclonal antibodies to tetracyclic compounds, processes for their production, and applications” (CIBA-GEIGY AG, priority 1989, dated 1990).
# Structures can show the parent of a compound that is named as a salt. Where two headings read alike, the source gives them in different places.
# How the values were obtained:
# Assay in all cases: inhibition enzyme immunoassay: inhibition of MAb binding to surface bound R-(-)-oxaprotiline-mucin conjugate
# Set-up in all cases: species or system mouse
# MAb 1219S59.11 = details: for IC50: read-out: IC₅₀
# Method: (§1) The affinities of the monoclonal antibodies of the invention to R-(-)-oxaprotiline can for example be determined in an inhibition enzyme immunoassay according to Friguet et al. (J. Immunol. Methods 77, 305, 1985) wherein the monoclonal antibody to be tested is preincubated with R-(-)-oxaprotiline and, in a second step, exposed to a solid phase coated with an adsorbable conjugate of R-(-)-oxaprotiline, e.g. a protein conjugate. The fraction of the monoclonal antibody not engaged in immunocomplexes binds to the solid phase and is quantified by a secondary antibody-enzyme conjugate directed against the monoclonal antibody. The affinities are expressed as IC₅₀ (inhibition concentration) values, i.e. the concentration of free antigen causing a 50 % inhibition of antibody binding to the solid phase antigen.
# (§2) This can be done, for example, in an inhibition enzyme immunoassay wherein the monoclonal antibodies of the invention are preincubated with any of the soluble compounds listed above and the incubation mixture is then tested in the enzyme immunoassay described above.
# (§3) The conjugate solution (0.66 mg/ml) is diluted 1000-fold in coating buffer pH 9.8 (477 mg sodium carbonate, 897 mg sodium hydrogen carbonate, 60 mg sodium azide, 300 ml distilled water) and incubated in the wells of a microtitre plate for 2 days at 4°C. The wells are washed three times with PBS containing Tween 20 (Sigma, 0.1 %). Residual adsorption sites on the plate are saturated by incubation with 100 µl of PBS/Tween 20 for 1 h. 100 µl of a solution to be tested for the presence of antibodies to R-(-)-oxaprotiline are incubated in the wells for 1 h at room temperature. After washing three times with PBS/Tween 20, an alkaline phosphatase conjugated anti-mouse IgG antiserum (Sigma) is added in a 1000-fold dilution for 1 h at 37°C. The microtitre plate is washed five times with PBS/Tween 20, and the enzyme-conjugated bound antiserum developed with an alkaline phosphatase substrate consisting of disodium p-nitrophenylphosphate (1 mg/ml; Sigma) in diethanolamine buffer pH 9.8. The substrate gives a yellow coloration which is measured with a colorimeter (Titertek Multiskan) at a wave length of 405 nm after 60 min.
# (§4) The assay is carried out as described in the following.
# (§5) The capacity of free R-(-)-oxaprotiline and of a number of compounds which are structurally analogous to R-(-)-oxaprotiline to inhibit the binding of the monoclonal antibodies of the invention to the antigen is determined in an inhibition enzyme immunoassay essentially as described in example 3.2. The MAbs are preincubated with free R-(-)-oxaprotiline and with various structural analogues, respectively, instead of with the test compounds of example 3.2.
# MAb 1219S78.6 = details: for IC50: read-out: IC₅₀
# Method: as §1, §2, §3, §4, §5
# MAb 1225S93.2 = details: for IC50: read-out: IC₅₀
# Method: as §1, §2, §3, §4, §5
# MAb 1228P63.1 = details: for IC50: read-out: IC₅₀
# Method: as §1, §2, §3, §4, §5
# MAb 1226S31.3 = tested on: MAb 1226S31.3
# Method: as §1, §2, §3
# The capacity of a number of therapeutic drugs some of which are used in combination with antidepressants and of biogenic amines to inhibit the binding of the monoclonal antibodies of the invention to the antigen is determined in a two-step inhibition enzyme immunoassay to establish the selectivity of the monoclonal antibodies to the tested compounds.
# as §4, §5
# [1] = Mab 1226S31.3, therapeutic drugs and biogenic amines, 1 µM-150 pM, preincubated overnight, read-out: IC50
# [2] = MAb 1219S59.11, derived from IC50, compound 1 = 1
# [3] = MAb 1225S93.2, derived from IC50, compound 1 = 1
# [4] = MAb 1228P63.1, derived from IC50, compound 1 = 1
SMILES,rel. affinity (MAb 1219S59.11),IC50 (MAb 1219S59.11; MAb 1219S59.11) [nM],IC50 relative to reference compound (fold) (MAb 1219S78.6),IC50 (MAb 1219S78.6; MAb 1219S78.6) [nM],rel. affinity (MAb 1225S93.2),IC50 (MAb 1225S93.2; MAb 1225S93.2) [nM],rel. affinity (MAb 1228P63.1),IC50 (MAb 1228P63.1; MAb 1228P63.1) [nM],rel. affinity (MAb 1226S31.3),"IC50 (MAb 1226S31.3; MAb 1226S31.3, read-out: IC₅₀) [nM]",IC50 (MAb 1226S31.3; [1]) [nM],IC50 relative to reference compound (higher = weaker binding) (MAb 1219S59.11; [2]),"IC50 relative to reference compound (fold) (MAb 1219S78.6; MAb 1219S78.6, derived from IC50, compound 1 = 1)",rel. affinity (MAb 1225S93.2; [3]),rel. affinity (MAb 1228P63.1; [4]),"rel. affinity (MAb 1226S31.3; MAb 1226S31.3, derived from IC50, compound 1 = 1)",rel. affinity (MAb 1219S59.11; [2])
"CNCC(O)CC12CCC(c3ccccc31)c1ccccc12 (racemic) [compound 3, 1-(2-hydroxy-3-methyl-amino-propyl)-dibenzo-[b,e]bicyclo[2.2.2]-octadiene-hydro-chloride]",2.6,0.75,1.7,0.515,1.3,0.475,2.3,1.72,0.5,3.09,,,,,,,
"CNCC(O)c1ccc(O)c(O)c1 (stereo not shown) [Epinephrin, 4-[1-hydroxy-2-(methyl-amino)-ethyl]-1,2-benzene-diol]",,,,,,,,,,,> 1000,,,,,,
"NCCc1c[nH]cn1 [Histamine, 1H-imidazole-4-ethane-amine]",,,,,,,,,,,> 1000,,,,,,
"NCC(O)c1ccc(O)c(O)c1 [L-Norepinephrin, 4-[2-amino-1-hydroxy-ethyl]-1,2-benzenediol]",,,,,,,,,,,> 1000,,,,,,
CNC[C@H](O)CC12CCC(c3ccccc31)c1ccccc12 [compound 1],,0.29,,0.305,,0.37,,0.75,,6.7,6.7,1,1,1,1,1,
"CNC[C@@H](O)CC12CCC(c3ccccc31)c1ccccc12 [compound 2, S-(+)-1-(2-hydroxy-3-methylamino-propyl)-dibenzo[b,e]bicyclo-[2.2.2]octadiene-hydrochloride]",462.0,134,126.2,38.5,2.3,0.85,6.5,4.9,∼0.6,~4,,,,,,,
"CNC[C@@H](CC12CCC(c3ccccc31)c1ccccc12)O[C@@H]1O[C@H](C(=O)O)[C@@H](O)[C@H](O)[C@H]1O [compound 4, R-(-)-1-(2-glucuronyl-3-methylamino-propyl)-dibenzo[b,e]bicyclo-[2.2.2]octadiene]",244.8,71,229.5,70,245.9,91,68.0,51,4.1,27.5,,,,,,,
"CNC[C@H](CC12CCC(c3ccccc31)c1ccccc12)O[C@@H]1O[C@H](C(=O)O)[C@@H](O)[C@H](O)[C@H]1O [compound 5, S-(+)-1-(2-glucuronyl-3-methylamino-propyl)-dibenzo[b,e]bicyclo-[2.2.2]octadiene]",>3448,> 1000,>3279,> 1000,429.7,159,562.7,422,52.7,353,,,,,,,
"CNCCCC12CCC(c3ccccc31)c1ccccc12 [compound 6, 1-(3-methylamino-propyl)-dibenzo[b,e]-bicyclo[2.2.2]-octadiene-hydro-chloride]",,,,,,,,,,,,,,1.2,1.4,,8.8
"NCC(O)CC12CCC(c3ccccc31)c1ccccc12 (stereo not shown) [compound 7, 1-(3-amino-2-hydroxy-propyl)-dibenzo[b,e]-bicyclo[2.2.2]-octadiene-hydro-chloride]",368.9,107,249.2,76,2.0,0.75,2.2,1.65,0.4,2.38,,,,,,,
"CNCC(CC12CCC(c3ccccc31)c1ccccc12)OC(C)=O (stereo not shown) [compound 11, 1-(2-acetoxy-3-methyl-amino-propyl)-dibenzo[b,e]bicyclo-[2.2.2]octadiene-hydrochloride-semi-hydrate]",4.5,1.3,3.3,1,1.9,0.715,4.5,3.35,0.5,3.58,,,,,,,
"c1ccc2c(c1)C1CCC2(CC2CNCCO2)c2ccccc21 (stereo not shown) [compound 12, 2-(dibenzo[b,e]bicyclo-[2.2.2]octadienyl-1-methyl)-morpholine-hydrochloride]",174.1,50.5,∼49.2,~15,6.4,2.35,3.1,2.35,0.3,2.1,,,,,,,
"CN1COC(CC23CCC(c4ccccc42)c2ccccc23)C1 (stereo not shown) [compound 13, 3-methyl-5-(dibenzo-[b,e]bicyclo[2.2.2]-octadienyl-1-methyl)-oxazolidine-methane-sulfonate]",1.9,0.55,1.6,0.48,1.6,0.58,1.6,1.2,0.7,4.45,,,,,,,
"CN(C)CC(O)CC12CCC(c3ccccc31)c1ccc(Cl)cc12 (stereo not shown) [compound 15, 1-(2-hydroxy-3-dimethylamino-propyl]-10-chlorodibenzo[b,e]-bicyclo[2.2.2]-octadiene-cyclamate]",124.1,36,170.5,52,74.3,27.5,16.7,12.5,7.5,50,,,,,,,
CNCC(O)CC12CCC(c3ccccc31)c1ccc(C(F)(F)F)cc12 (stereo not shown) [compound 16],>3448,> 1000,>3279,> 1000,251.4,93,>1667,> 1250,>149,> 1000,,,,,,,
CN(C)CC(O)CC12CCC(c3ccccc31)c1ccc(C(F)(F)F)cc12 (stereo not shown) [compound 17],>3448,> 1000,>3279,> 1000,628.4,232,>1667,> 1250,>149,> 1000,,,,,,,
